Where “and” joins values, the source holds several entries; their conditions need not be identical. Equal entries are not always repeated. Where two headings read alike, the source gives them in different places.
How the values were obtained:
CI-AMPARs [1] = target: T1, CI-AMPARs (Rattus norvegicus, UniProt P19491, Q607R); assay: Whole-cell patch-clamp of kainate-induced currents in isolated hippocampal CA1 pyramidal neurons; type: cell-based, Wistar rat; conditions: for inhibition at 300 µM: 300 µM compound, read-out: percentage of inhibition at 300-µM concentration; for IC50: kainate-induced currents, Hill equation; for IC50 / CI-AMPARs % inhibition at 100 µM / inhibition at 100 µM: −80 mV; for CI-AMPARs % inhibition at 100 µM: 100 µM compound; for CI-AMPARs % inhibition at 100 µM / inhibition at 100 µM: currents induced by 100 µM kainate, mean ± SD, N = 5; for inhibition at 100 µM: read-out: CI-AMPARs % inhibition at 100 µM, 100 µM compound; for Activity drop in the presence of cyclothiazide: 50 µM kainate
T1 construct: activity against native calcium-permeable AMPA receptors (CP-AMPARs) and calcium-impermeable AMPA receptors (CI-AMPARs); endogenous in cells; host or cells: acutely isolated pyramidal neurons from the CA1 area of Wistar rat hippocampal slices
T1 sequence (P19491 22-883 Q607R): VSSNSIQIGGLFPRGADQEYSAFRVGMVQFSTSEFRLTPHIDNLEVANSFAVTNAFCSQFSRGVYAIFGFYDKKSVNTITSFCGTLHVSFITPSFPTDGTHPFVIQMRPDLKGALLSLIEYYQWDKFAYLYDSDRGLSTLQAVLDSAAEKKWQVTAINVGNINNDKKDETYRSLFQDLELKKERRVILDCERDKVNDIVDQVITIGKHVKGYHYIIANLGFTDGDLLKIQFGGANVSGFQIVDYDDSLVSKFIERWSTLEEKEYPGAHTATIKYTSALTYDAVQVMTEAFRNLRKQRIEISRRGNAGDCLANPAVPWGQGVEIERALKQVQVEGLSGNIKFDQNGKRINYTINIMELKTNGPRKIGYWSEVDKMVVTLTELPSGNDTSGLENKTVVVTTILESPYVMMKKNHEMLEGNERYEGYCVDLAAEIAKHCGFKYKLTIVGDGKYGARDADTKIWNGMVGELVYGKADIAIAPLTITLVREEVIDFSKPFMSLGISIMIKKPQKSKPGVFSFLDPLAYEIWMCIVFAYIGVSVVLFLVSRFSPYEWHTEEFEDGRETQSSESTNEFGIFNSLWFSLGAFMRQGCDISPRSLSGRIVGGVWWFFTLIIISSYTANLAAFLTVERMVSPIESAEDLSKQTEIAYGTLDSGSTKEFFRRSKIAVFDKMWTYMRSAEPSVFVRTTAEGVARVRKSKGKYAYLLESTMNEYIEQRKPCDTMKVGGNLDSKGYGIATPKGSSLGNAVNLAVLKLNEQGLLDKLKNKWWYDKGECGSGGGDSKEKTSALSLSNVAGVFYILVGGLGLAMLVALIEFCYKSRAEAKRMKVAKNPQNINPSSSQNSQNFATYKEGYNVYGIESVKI
Experimental: All experimental procedures were approved by the Animal Care and Use Committee of the I.M. Sechenov Institute of Evolutionary Physiology and Biochemistry of the Russian Academy of Sciences. Wistar rats (13–19 days old) were anesthetized with sevoflurane and then decapitated. Maximum effort was made to minimize the number of animals used. Brains were removed quickly and cooled to 2–4°C in an ice bath. […] The antagonism of CI-AMPARs was studied on pyramidal neurons from the CA1 area of the hippocampus.
Series resistance of about 20 MΩ was compensated by 70–80% and monitored during experiments. Currents were recorded using an EPC-8 amplifier (HEKA Electronics, Lambrecht, Germany), filtered at 5 kHz, sampled, and stored on a personal computer. Drugs were applied using the RSC-200 perfusion system (BioLogic Science Instruments, Claix, France) under computer control. The solution exchange time in the whole-cell mode was 50–60 ms. […] The pipette solution contained (in mM) CsF 100, CsCl 40, NaCl 5, CaCl2 0.5, EGTA 5, and HEPES 10 (pH was adjusted to 7.2 with CsOH). Experiments were performed at room temperature (22–24°C). […] Lamotrigine, topiramate, levetiracetam, felbamate, carbamazepine, tiagabin, vigabatrin, zonisamide, and gabapentin were purchased from Tocris Bioscience (Bristol, United Kingdom). Perampanel was from MedChemExpress (Stockholm, Sweden). Kinetics of transient processes of more than 20-ms duration was approximated by exponential functions. Experiments were performed at −80 mV holding voltage. All experimental data are presented as mean ± SD estimated from at least four experiments. Significance of the effects was tested with paired t test. Differences were considered significant at p < 0.05. 3D structures of compounds were calculated by the ZMM software (zmmsoft.ca).

CI-AMPARs [2] = target: T1, CI-AMPARs; set-up: method as in Barygin, 2016; conditions: ref Barygin, 2016; cited from earlier work
CP-AMPARs = assay: Whole-cell patch-clamp of kainate-induced currents in isolated striatal giant interneurons; type: cell-based, Wistar rat; conditions: for % block: IEM-1925, […], representative recording, Figure 3E; for % inhibition: […] IEM-1925; for IC50: read-out: IC50 CP-AMPARs, kainate-induced currents, Hill equation; for IC50 / CP-AMPARs % inhibition at 100 µM: −80 mV; for CP-AMPARs % inhibition at 100 µM: 100 µM compound, currents induced by 100 µM kainate, mean ± SD, N = 5
Experimental: All experimental procedures were approved by the Animal Care and Use Committee of the I.M. Sechenov Institute of Evolutionary Physiology and Biochemistry of the Russian Academy of Sciences. Wistar rats (13–19 days old) were anesthetized with sevoflurane and then decapitated. Maximum effort was made to minimize the number of animals used. Brains were removed quickly and cooled to 2–4°C in an ice bath. […] Single neurons were freed from slices by vibrodissociation ([Vorobjev, 1991]). The antagonism of CP-AMPARs was studied on striatal giant interneurons ([Bernard et al., 1997]; [Gotz et al., 1997]), which were identified by their shape and size. […] The antagonism of CI-AMPARs was studied on pyramidal neurons from the CA1 area of the hippocampus.
Series resistance of about 20 MΩ was compensated by 70–80% and monitored during experiments. Currents were recorded using an EPC-8 amplifier (HEKA Electronics, Lambrecht, Germany), filtered at 5 kHz, sampled, and stored on a personal computer. Drugs were applied using the RSC-200 perfusion system (BioLogic Science Instruments, Claix, France) under computer control. The solution exchange time in the whole-cell mode was 50–60 ms. The extracellular solution contained (in mM) NaCl 143, KCl 5, MgCl2 2.0, CaCl2 2.5, D-glucose 18, and HEPES 10 (pH was adjusted to 7.3 with HCl). The pipette solution contained (in mM) CsF 100, CsCl 40, NaCl 5, CaCl2 0.5, EGTA 5, and HEPES 10 (pH was adjusted to 7.2 with CsOH). Experiments were performed at room temperature (22–24°C). […] Lamotrigine, topiramate, levetiracetam, felbamate, carbamazepine, tiagabin, vigabatrin, zonisamide, and gabapentin were purchased from Tocris Bioscience (Bristol, United Kingdom). Perampanel was from MedChemExpress (Stockholm, Sweden). Kinetics of transient processes of more than 20-ms duration was approximated by exponential functions. Experiments were performed at −80 mV holding voltage. All experimental data are presented as mean ± SD estimated from at least four experiments. Significance of the effects was tested with paired t test. Differences were considered significant at p < 0.05. 3D structures of compounds were calculated by the ZMM software (zmmsoft.ca).

hGluA1-4 receptors = tested on: hGluA1-4 receptors; set-up: method as in Fukushima et al. (2020); conditions: ref Fukushima et al. (2020); cited from earlier work

For `CC1=NN=C(c2ccc(N)cc2)c2cc3c(cc2C1)OCO3` [GYKI-52466], the “effect on the slow phase of recovery from 50 µM phenytoin” value (CI-AMPARs [1]; 200 µM GYKI-52466) is given as “remains unchanged” and the “displacement of slow negative allosteric antagonist perampanel” value (CI-AMPARs [2]) is given as “able to displace”.
Molecule `O=C1CNC(=O)N1` [hydantoin] has an inhibition at 300 µM (CI-AMPARs [1]) of no more than 20%.
With `NCCCCCNC1(c2ccccc2)CCCCC1` [IEM-1925] the “More active against CI-AMPARs” value (CI-AMPARs [1]) was “dramatically more active against CP-AMPARs and No”, the IC50 (CI-AMPARs [1]) was 180 ± 30 µM and the “slow component of the response to testing kainate application in the trapping protocol” value (CP-AMPARs; 6 µM IEM-1925, double-pulse protocol, n = 4) was 1,800 ± 400 ms. The “Activity drop at high (500 µM) kainate concentration” value (CP-AMPARs; 50 vs 500 µM kainate, striatal CP-AMPARs) was “No”, the “% block” value (CP-AMPARs; Ka 50 μM) was 49% and the “% block” value (CP-AMPARs; Ka 500 μM) was 57%. For the same molecule, the “% inhibition” value (CP-AMPARs; 50 µM kainate) was 48 ± 3%, the “% inhibition” value (CP-AMPARs; 500 µM kainate) was 55 ± 5% and the “Difference in the % of inhibition in coapplication and preapplication protocols” value (CP-AMPARs; coapplication with kainate vs preapplication without kainate, striatal CP-AMPARs) was “inhibited only open channels and Yes”. For the same molecule, the “Trap in kainate 100 µM” value (CP-AMPARs; double-pulse protocol, 30-s pause, striatal giant interneuron) was “Yes”, the “Trap in kainate 500 µM” value (CP-AMPARs; double-pulse protocol, striatal giant interneuron) was “Yes” and the IC50 (CP-AMPARs) was 1.3 ± 0.4 µM.
With `CCC1(C)CC(=O)NC1=O` (centres unmarked) [ethosuximide] the inhibition at 300 µM (CI-AMPARs [1]) was no more than 20%.
For `NC(=O)N1c2ccccc2C=Cc2ccccc21` [Carbamazepine], the “CI-AMPARs % inhibition at 100 µM” value (CI-AMPARs [1]) was 11 ± 3%, the inhibition at 100 µM (CI-AMPARs [1]) was no more than 20% and the “CP-AMPARs % inhibition at 100 µM” value (CP-AMPARs) was 15 ± 4%. The “CP-AMPARs % inhibition at 100 µM” value (CP-AMPARs; listed as carbamazepine) was no more than 20% and the “activity against hGluA1-4 receptors” value (hGluA1-4 receptors) was “did not find significant activity”.
In the case of `O=C1NC(=O)C(Cc2ccccc2)N1` (centres unmarked) [5-benzylhydantoin], the inhibition at 300 µM (CI-AMPARs [1]) is reported as no more than 20%.
In the case of `NCC1(CC(=O)O)CCCCC1` [Gabapentin], the “CI-AMPARs % inhibition at 100 µM” value (CI-AMPARs [1]) is reported as 20 ± 6%, the inhibition at 100 µM (CI-AMPARs [1]) is reported as no more than 20% and the “CP-AMPARs % inhibition at 100 µM” value (CP-AMPARs) is reported as 12 ± 5%. For the same molecule, the “CP-AMPARs % inhibition at 100 µM” value (CP-AMPARs; listed as gabapentin) was no more than 20% and the “activity against hGluA1-4 receptors” value (hGluA1-4 receptors) was “did not find significant activity”.
In the case of `CCC1(c2ccccc2)C(=O)NC(=O)NC1=O` [phenobarbital], the “activity against hGluA1-4 receptors” value (hGluA1-4 receptors) is given as “did not find significant activity”.
`NS(=O)(=O)c1cc2c(cc1Cl)NC(C1CC3C=CC1C3)NS2(=O)=O` (centres unmarked) [Cyclothiazide] showed a fold potentiation (CI-AMPARs [1]; Kainate, 50 μM +/- cyclothiazide, 100 μM, representative recording, Figure 5A) of 7.4 fold and a fold induction at 100 µM (CI-AMPARs [1]; read-out: increase of the stationary current induced by 50 µM kainate, 100 µM cyclothiazide) of 8 ± 2.
With `CCCC(C)C1(CC)C(=O)NC(=O)NC1=O` (centres unmarked) [Pentobarbital] the “% block” value (CI-AMPARs [1]) was 56% and 42%, the “Activity drop at high (500 µM) kainate concentration” value (CI-AMPARs [1]) was “more active in the case of lower kainate concentration and Yes” and the “More active against CI-AMPARs” value (CI-AMPARs [1]) was “Yes”. For the same molecule, the “effect on maximal response to kainate” value (CI-AMPARs [1]; 14 µM pentobarbital) was “decreased the maximal response to kainate”, the “Activity drop in the presence of cyclothiazide” value (CI-AMPARs [1]; 100 µM cyclothiazide) was “Yes” and the “Activity drop in the presence of cyclothiazide” value (CI-AMPARs [1]; 100 µM cyclothiazide, listed as pentobarbital) was “significantly attenuated in the presence of cyclothiazide”. The “decrease in the % of inhibition with the increase in agonist concentration” value (CI-AMPARs [1]; 50 vs 500 µM kainate) was 10–15%, the “% block” value (CI-AMPARs [1]; Pentobarbital, 50 μM, Kainate, 50 μM + cyclothiazide, 100 μM, representative recording, Figure 5E) was 27% and the “% block” value (CI-AMPARs [1]; Pentobarbital, 50 μM, Kainate, representative recording, Figure 5D) was 75%. The “Difference in the % of inhibition in coapplication and preapplication protocols” value (CI-AMPARs [1]; coapplication with kainate vs preapplication without kainate) was “more active in the coapplication protocol and Yes”, the “Trap in kainate 100 µM” value (CI-AMPARs [1]; double-pulse protocol, 30-s pause) was “Yes” and the IC50 (CI-AMPARs [1]) was 14 ± 3 µM. For the same molecule, the pH-dependence (CI-AMPARs [1]; pH 7.4 vs 9.0) was “Yes”, the “% block” value (CI-AMPARs [1]; pentobarbital 30 μM, pH 7.4, Kainate, 100 μM, representative recording, Figure 10B) was 65% and the “% block” value (CI-AMPARs [1]; pentobarbital 30 μM, pH 9.0, Kainate, 100 μM, representative recording, Figure 10B) was 27%. It also gave an IC50 (CP-AMPARs) of 80 ± 13 µM.
In the case of `COC[C@@H](NC(C)=O)C(=O)NCc1ccccc1` [lacosamide], the “activity against hGluA1-4 receptors” value (hGluA1-4 receptors) is listed as “did not find significant activity”.
In the case of `CCCC(CCC)C(=O)O` [valproate], the “activity against hGluA1-4 receptors” value (hGluA1-4 receptors) is listed as “did not find significant activity”.
For `Cc1ccsc1C(=CCCN1CCCC(C(=O)O)C1)c1sccc1C` (centres unmarked) [Tiagabin], the “CI-AMPARs % inhibition at 100 µM” value (CI-AMPARs [1]) was 14 ± 2%, the inhibition at 100 µM (CI-AMPARs [1]) was no more than 20% and the “CP-AMPARs % inhibition at 100 µM” value (CP-AMPARs) was 10 ± 2%. For the same molecule, the “CP-AMPARs % inhibition at 100 µM” value (CP-AMPARs; listed as tiagabin) was no more than 20%.
In the case of `C=CC(N)CCC(=O)O` (centres unmarked) [Vigabatrin], the “CI-AMPARs % inhibition at 100 µM” value (CI-AMPARs [1]) is reported as 8 ± 1%, the “CI-AMPARs % inhibition at 100 µM” value (CI-AMPARs [1]; listed as vigabatrin) is reported as no more than 20% and the “CP-AMPARs % inhibition at 100 µM” value (CP-AMPARs) is reported as 10 ± 3%. The “CP-AMPARs % inhibition at 100 µM” value (CP-AMPARs; listed as vigabatrin) was no more than 20%.
`CCC1(c2ccccc2)C(=O)NCNC1=O` [primidone] showed an inhibition at 300 µM (CI-AMPARs [1]) of no more than 20%.
For `NC(=O)OCC(COC(N)=O)c1ccccc1` [Felbamate], the “CI-AMPARs % inhibition at 100 µM” value (CI-AMPARs [1]) was 16 ± 4%, the inhibition at 100 µM (CI-AMPARs [1]) was no more than 20% and the “CP-AMPARs % inhibition at 100 µM” value (CP-AMPARs) was 10 ± 4%. The “CP-AMPARs % inhibition at 100 µM” value (CP-AMPARs; listed as felbamate) was no more than 20%.
With `NS(=O)(=O)Cc1noc2ccccc12` [Zonisamide] the “CI-AMPARs % inhibition at 100 µM” value (CI-AMPARs [1]) was 11 ± 2%, the inhibition at 100 µM (CI-AMPARs [1]) was no more than 20% and the “CP-AMPARs % inhibition at 100 µM” value (CP-AMPARs) was 11 ± 3%. The “CP-AMPARs % inhibition at 100 µM” value (CP-AMPARs; listed as zonisamide) was no more than 20%.

Reference: article PMC8688955 (Frontiers in Pharmacology, 2021)
